What follows are compounds tested against Neuronal acetylcholine receptor (assay: Binding affinity towards nicotinic acetylcholine receptor using [3H]nicotine as radioligand in rat brain homogenates).
Assay type: tissue-based

Row | Structure (SMILES) | Ki
1 | CCN(C)Cc1cnccc1F | 93 nM
2 | CN1CCCC1c1ccc(Br)nc1 (stereo unspecified) | 0.45 nM
3 | CCN(C)CCOc1ccc(OC)nc1 | 4070 nM
4 | CCN(C)Cc1cnc2cc3ccncc3cc2c1 | 1110 nM
5 | CCN(C)Cc1cnccc1Cl | 41 nM
6 | CCN(C)CCOc1cncc(Br)c1 | 447 nM
7 | CN1CCCC1c1cncc(F)c1 (stereo unspecified) | 1.03 nM
8 | CCN(C)Cc1cncc(OC)c1 | 115 nM
9 | CN1CCCC1c1cnc2cc3ccncc3cc2c1 (stereo unspecified) | 11.2 nM
10 | CCN(C)CCOc1ccc(Br)nc1 | 290 nM
11 | CCN(C)CCOc1cccnc1 | 22 nM
12 | CCN(C)CCOc1cncc(OC)c1 | 16 nM
13 | CN1CCCC1c1cncc(Cl)c1 (stereo unspecified) | 0.63 nM
14 | CCN(C)Cc1ccc(Br)nc1 | 62 nM
15 | c1ccc2ncc(C3CCCN3)cc2c1 (stereo unspecified) | 93 nM
16 | CCN(C)Cc1ccc(C)nc1 | 66 nM

From ChEMBL document CHEMBL1135190, “A comparison of the binding of three series of nicotinic ligands” (Bioorg Med Chem Lett, 2002)
